Tests used:
RXRα [1] = molecular target: T1, RXRα (Homo sapiens, UniProt P19793); assay: RXRα transactivation, agonist activity; assay type: cell-based
T1 sequence (P19793 1-462): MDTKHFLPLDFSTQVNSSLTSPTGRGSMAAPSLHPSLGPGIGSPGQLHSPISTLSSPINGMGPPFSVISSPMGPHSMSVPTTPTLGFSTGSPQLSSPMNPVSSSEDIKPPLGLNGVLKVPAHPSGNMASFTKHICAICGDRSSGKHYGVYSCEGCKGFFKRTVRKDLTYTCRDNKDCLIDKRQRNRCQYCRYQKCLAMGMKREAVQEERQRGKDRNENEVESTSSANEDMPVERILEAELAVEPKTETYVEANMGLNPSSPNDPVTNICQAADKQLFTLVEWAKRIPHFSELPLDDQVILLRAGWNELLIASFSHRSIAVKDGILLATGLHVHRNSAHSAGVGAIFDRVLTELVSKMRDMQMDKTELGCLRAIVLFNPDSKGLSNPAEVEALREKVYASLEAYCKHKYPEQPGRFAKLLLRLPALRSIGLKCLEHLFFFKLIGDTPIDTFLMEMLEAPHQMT
From the text: The binding and transactivation properties as RXR-receptor agonists can be determined by methods known in the art, such as, for example: Levin et al., Nature, 355, 359-61 (1992); Allenby et al., Proc. Natl. Acad. Sci., 90, 30-4 (1993).

RXRα [2] = molecular target: T1, RXRα; assay: cell-based

AC50 (RXRα [1]) [nM]	melting point [°C]	RXRα transactivation Agonist AC50 (nM) (RXRα [1])	IC50 (RXRα [2]) [nM]	Compound
32	–	–	–	COCOc1ccc(C#CC(=O)O)cc1-c1cc2c(cc1C)C(C)(C)CCC2(C)C [Compound 7, [4-Methoxymethoxy-3-(3,5,5,8,8-pentamethyl-5,6,7,8-tetrahydro-2-naphthyl)phenyl]propynoic Acid]
–	–	inactive	631	CCCCCOc1cc2c(cc1-c1cc(C=CC(=O)O)ccc1OCOC)C(C)(C)CCC2(C)C [Compound 9, 3-[3-(3-Pentyloxy-5,5,8,8-tetramethyl-5,6,7,8-tetrahydro-2-naphthyl)-4-methoxymethoxyphenyl]acrylic Acid]
–	–	inactive	4000	COCOc1ccc(C=CC(=O)O)cc1-c1cc2c(cc1OCc1ccccc1)C(C)(C)CCC2(C)C [Compound 5, 3-[3-(3-Benzyloxy-5,5,8,8-tetramethyl-5,6,7,8-tetrahydro-2-naphthyl)-4-methoxymethoxyphenyl]acrylic Acid]
165	–	–	–	COc1c(-c2cc(C=CC(=O)O)ccc2O)cc(C(C)(C)C)cc1C(C)(C)C [Compound 4, 3-(3′,5′-di-tert-Butyl-6-hydroxy-2′-methoxy-3-biphenylyl)acrylic Acid]

The remaining lines, values behind:

Compound	AC50 (RXRα [1]) [nM]	melting point [°C]	RXRα transactivation Agonist AC50 (nM) (RXRα [1])	IC50 (RXRα [2]) [nM]
COc1c(-c2cccc(C=CC(=O)O)c2)cc(C(C)(C)C)cc1C(C)(C)C [Compound 1, 3-(3′,5′-di-tert-Butyl-2′-methoxy-3-biphenylyl)acrylic Acid]	384	–	–	–
COCOc1c(-c2cccc(C=CC(=O)O)c2)ccc2c1C(C)(C)CCC2(C)C	–	188 to 189	–	–
CCCCCOc1c(-c2cc(C=CC(=O)O)ccc2O)cc(C(C)(C)C)cc1C(C)(C)C [Compound 3, 3-(3′,5′-di-tert-Butyl-6-hydroxy-2′-pentyloxy-3-biphenylyl)acrylic Acid]	–	–	inactive	729
CC1(C)CCC(C)(C)c2cc(-c3cc(C=CC(=O)O)ccc3O)c(OCc3ccccc3)cc21 [Compound 6, 3-[3-(3-Benzyloxy-5,5,8,8-tetramethyl-5,6,7,8-tetrahydro-2-naphthyl)-4-hydroxyphenyl]acrylic Acid]	–	–	inactive	505
CC(C)(C)c1cc(-c2cc(C=CC(=O)O)ccc2O)c(OCc2ccccc2)c(C(C)(C)C)c1 [Compound 2, 3-(2′-Benzyloxy-3′,5′-di-tert-butyl-6-hydroxy-3-biphenylyl)acrylic Acid]	–	–	inactive	920
CCCOc1cc2c(cc1-c1cc(C=CC(=O)O)ccc1OCOC)C(C)(C)CCC2(C)C [Compound 8, 3-[3-(3-Propyloxy-5,5,8,8-tetramethyl-5,6,7,8-tetrahydro-2-naphthyl)-4-methoxymethoxyphenyl]acrylic Acid]	–	–	inactive	1100

Source: patent publication US6632963B1, “Bicyclic aromatic compounds and pharmaceutical/cosmetic compositions comprised thereof” (Galderma Research & Development S.N.C., priority 1998, dated 2003)
